The values that follow come from PMC4926109, “Pharmacological targeting of glucose-6-phosphate dehydrogenase in human erythrocytes by Bay 11–7082, parthenolide and dimethyl fumarate” (Scientific Reports, 2016).

Molecules are shown by their SMILES.

The subject of data set [1] is mature human erythrocytes. The data set is described as follows: MCV and MCHC of inhibitor-treated erythrocytes (ADVIA 120 Hematology System). In kind it is cell-based. The note with it: 20 μM, 24 h incubation, Hct 0.6%. On the procedure: Erythrocyte concentrates (0.6% Hct), suspended in 30 ml Ringer solution were treated with Bay 11–7082 (20 μM), parthenolide (50 μM) and DMF (140 μM) for 24 h, respectively. DMSO (0.2% (v/v))-treated erythrocytes served as negative controls. After incubation, samples were centrifuged at 210 g for 10 min at room temperature in order to obtain RBC pellets. Ionomycin (0.25 μM)-treated erythrocytes served as positive controls, and were first incubated in Ringer solution in the absence of ionomycin for 21.5 h. Subsequently, the cells were treated with ionomycin for 2.5 h, and the MCV and MCHC values were determined. The MCV and MCHC analysis was carried out with an ADVIA 120 Hematology System Instrument (Siemens, Germany).

Data set [2] deals with mature human erythrocytes. Briefly: Forward scatter (FSC, GeoMean) by flow cytometry, cell volume / cell shrinkage. Type of data set: cell-based. The note with it: for GeoMean: 20 μM, 24 h incubation, Hct 0.6%. On the procedure:
(§1) After incubation, 2·10^6 RBCs were washed in 500 μl Annexin-binding buffer. RBC pellets were then vortexed gently to get a homogenous cell suspension. To detect phosphatidylserine (PS) on the outer leaflet of the plasma membrane, these cells were subsequently stained with 32 μl Annexin V-FLUOS at a 1:33 dilution and mixed gently on a vortex mixer. After 20 min incubation in the dark at room temperature, 200 μl of Annexin-binding buffer was added to each sample, thoroughly vortexed to achieve single cell suspensions, and analysed by flow cytometry on a FACS-Calibur (Becton Dickinson, Heidelberg, Germany). Cell volume was determined by forward scatter (FSC), and Annexin V-FLUOS binding was measured in the FL1-channel.
(In general: In flow cytometry, cells or beads pass a laser one at a time.)

The test system of data set [3] is GSH in mature human erythrocytes. Briefly: Intracellular GSH measurement by HPLC (GS-NEM conjugate). Type of data set: cell-based. On the procedure: (§2) DMSO-treated erythrocytes served as negative controls. After incubation, erythrocytes were treated with 0.6 mM (final concentration) NEM prepared as a 310 mM stock in H2O. NEM functioned as the best alkylating agent for GSH conjugation to prevent sample manipulation-induced oxidation of GSH. After a 2-min incubation at room temperature, samples were centrifuged at 210 g for 10 min in order to obtain RBC pellets. These were immediately stored at −20 °C until GSH and GSSG analyses were performed. All measurements were carried out within one week after the treatment. GSH and GSSG were measured in the clear supernatant obtained by treatment of 0.1 ml RBCs with 0.12 ml 15% (w/v) trichloroacetic acid. GSH analysis was carried out by high-performance liquid chromatography (HPLC), as recently reported. […] GSSG was measured photometrically by the GSH recycling method with slight modifications. For hemoglobin determination, one aliquot of the RBC suspensions (10 μl) was hemolysed by 1:200 dilution with H2O[62]. The HPLC analyses were carried out with an Agilent series 1100 instrument (Agilent Technologies, Milan, Italy). The photometric analyses were performed with a Jasco V-530 instrument (Jasco Europe s.r.l. Cremella, Como, Italy).

For data set [4], the system named is GSSG in mature human erythrocytes. The data set is described as follows: Intracellular GSSG measurement, photometric GSH recycling method. Type of data set: cell-based. Particulars: 20 μM, 24 h, 0.6% Hct; DMSO control 0.06. On the procedure: as §2
Data set [5] concerns the target T1, glucose-6-phosphate dehydrogenase (G6PDH) (Homo sapiens, UniProt P11413).
T1 construct: endogenous in cells; host or cells: human erythrocytes (RBC concentrates), treated 24 h, then lysed
Briefly: G6PDH activity in lysates of inhibitor-treated erythrocytes. The note with it: erythrocytes treated 24 h, 0.6% Hct. Type of data set: cell-based. On the procedure: (§3) DMSO-treated erythrocytes served as negative controls. Determinations of the enzymatic activities of G6PDH, 6PGDH and GR (+/− FAD) were performed in leukocytes- and platelets-free erythrocyte lysates according to standard biochemical procedures. After 10 min incubation (20 min for GR) at 37 °C the reaction was started by adding substrate or co-factor. Changes in absorbance at 340 nm were recorded at 1 min intervals for 20 min (Infinite 200 Nanoquant spectrophotometer; Tecan, Männedorf, Switzerland). Specific activity of all enzymes was expressed as U/g Hb. The combined activity of G6PDH and 6PGDH was determined by estimating the conversion of NADP^+ to NADPH in the presence of glucose-6-phosphate (600 μM). The activity of 6PGDH alone was then measured by the conversion of NADP^+ to NADPH in the presence of 6-phosphogluconate (600 μM). Finally, G6PDH activity was calculated by subtracting 6PGDH activity from total dehydrogenase activity.

Data set [6] has as its target T2, glutathione reductase (GR) (Homo sapiens, UniProt P00390).
T2 construct: endogenous in cells; host or cells: human erythrocytes (RBC concentrates), treated 24 h, then lysed
T2 sequence (P00390 1-479 isoform P00390-2): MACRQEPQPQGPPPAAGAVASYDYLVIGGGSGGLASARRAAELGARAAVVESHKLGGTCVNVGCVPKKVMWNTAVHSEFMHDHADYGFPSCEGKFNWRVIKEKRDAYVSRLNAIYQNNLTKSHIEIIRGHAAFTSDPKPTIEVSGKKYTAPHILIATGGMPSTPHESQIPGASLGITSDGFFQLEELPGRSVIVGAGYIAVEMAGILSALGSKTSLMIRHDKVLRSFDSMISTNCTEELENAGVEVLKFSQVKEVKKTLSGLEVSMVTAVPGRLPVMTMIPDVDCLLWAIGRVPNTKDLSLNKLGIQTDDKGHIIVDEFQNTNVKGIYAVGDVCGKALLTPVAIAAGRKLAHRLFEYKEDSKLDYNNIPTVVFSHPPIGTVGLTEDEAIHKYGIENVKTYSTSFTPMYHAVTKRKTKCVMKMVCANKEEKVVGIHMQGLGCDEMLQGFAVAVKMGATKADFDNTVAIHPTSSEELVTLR
The data set is described as follows: GR activity (+/- FAD) in lysates of inhibitor-treated erythrocytes. In kind it is cell-based. On the procedure: as §3

In the next data set the target is T3, 6PGDH (Homo sapiens, UniProt P52209).
T3 construct: endogenous in cells; host or cells: human erythrocytes (RBC concentrates), treated 24 h, then lysed
T3 sequence (P52209 2-483 limits assumed): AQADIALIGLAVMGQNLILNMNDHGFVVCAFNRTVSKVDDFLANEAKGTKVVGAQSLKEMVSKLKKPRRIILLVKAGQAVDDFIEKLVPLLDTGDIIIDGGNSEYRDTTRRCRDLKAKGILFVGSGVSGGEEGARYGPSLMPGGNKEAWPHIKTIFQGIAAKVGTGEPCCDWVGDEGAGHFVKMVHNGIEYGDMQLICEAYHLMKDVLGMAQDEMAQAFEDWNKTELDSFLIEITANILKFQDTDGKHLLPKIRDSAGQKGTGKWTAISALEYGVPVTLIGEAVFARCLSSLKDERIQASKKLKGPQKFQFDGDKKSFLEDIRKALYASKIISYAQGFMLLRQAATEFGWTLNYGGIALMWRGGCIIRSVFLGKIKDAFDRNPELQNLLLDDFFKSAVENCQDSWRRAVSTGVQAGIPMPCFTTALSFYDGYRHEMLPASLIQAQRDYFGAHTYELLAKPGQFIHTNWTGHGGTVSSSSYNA
Briefly: 6PGDH activity in lysates of inhibitor-treated erythrocytes. In kind it is cell-based. Particulars: at the concentrations used, data not shown. The procedure:
as §3

Data set [7] has as its system human erythrocytes. The data set is described as follows: Eryptosis: Annexin V binding to phosphatidylserine, flow cytometry. Type of data set: cell-based. The note with it: increasing concentrations, same donors, 24 h and 48 h. The procedure:
as §1

In a further data set the test system is Trypanosoma brucei. Briefly: In vitro growth inhibition of parasite culture (own unpublished data). Type of data set: cell-based. Particulars: preliminary work.
The test system of data set [8] is human erythrocytes. The note with it: 20 µM.
Procedure: RBC concentrates (0.4% Hct) were treated with varying concentrations of Bay 11–7082, parthenolide or DMF for 24 h or 48 h, then hemolysis was determined. Briefly, after incubation, 600 μl suspension containing 1.2·10^7 RBCs were centrifuged for 4 min at 420 g, 4 °C, and the supernatants were harvested. To quantify hemolysis, the hemoglobin concentration of the supernatant was determined photometrically at 405 nm. The absorption of the supernatant of RBCs lysed in distilled water was defined as 100% hemolysis.

T1 sequence (P11413 2-515 limits assumed): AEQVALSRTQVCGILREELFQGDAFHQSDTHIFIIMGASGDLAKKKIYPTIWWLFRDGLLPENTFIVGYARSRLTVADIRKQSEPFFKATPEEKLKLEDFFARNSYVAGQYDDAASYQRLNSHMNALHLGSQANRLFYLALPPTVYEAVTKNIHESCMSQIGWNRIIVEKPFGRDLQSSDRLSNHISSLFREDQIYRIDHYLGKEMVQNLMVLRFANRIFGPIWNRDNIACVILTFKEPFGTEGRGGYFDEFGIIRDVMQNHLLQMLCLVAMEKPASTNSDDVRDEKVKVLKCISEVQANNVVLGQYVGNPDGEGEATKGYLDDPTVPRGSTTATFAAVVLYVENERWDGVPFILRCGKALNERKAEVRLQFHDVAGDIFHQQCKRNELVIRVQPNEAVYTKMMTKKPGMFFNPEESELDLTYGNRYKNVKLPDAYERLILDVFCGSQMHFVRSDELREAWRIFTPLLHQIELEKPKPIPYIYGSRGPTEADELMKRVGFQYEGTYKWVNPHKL

By IC50 is commonly meant the concentration needed to halve the response being measured. As a reminder, the EC50 is the concentration needed to bring the measured effect to its halfway point. As for `Cc1ccc(S(=O)(=O)/C=C/C#N)cc1` [Bay 11–7082], the MCHC in data set [1] (blood group A Rhesus +) came out at 33.9 g/dL; in data set [1] (blood group B Rhesus +), 37 g/dL; in [1] (blood group O Rhesus +), 34.1 g/dL. Further, the MCV was 84.1 fL in [1] (blood group A Rhesus +), 78.5 fL in data set [1] (blood group B Rhesus +) and 86.3 fL in data set [1] (blood group O Rhesus +). For the same compound, the values for the GeoMean in data set [2] (blood group A Rhesus +), in data set [2] (blood group B Rhesus +) and in data set [2] (blood group O Rhesus +) were 422.4, 339.3 and 410.7, respectively. The “decrease of cell volume (forward scatter)” value in data set [2] (increasing concentrations, 24 h and 48 h, 0.4% Hct) is listed as “marked decrease”. For the same compound, the GSH depletion entry in data set [3] (20 μM final concentration, 24 h) is recorded as “totally deplete GSH”. The compound further returned a GSH in data set [3] (20 μM, 24 h, 0.6% Hct, DMSO control 7.52) of 0.00 nmol/mg Hb. The half-inhibitory concentration (IC50) in data set [3] (24 h in Ringer solution, 0.6% Hct (mean GSH 15 μM), read-out: IC50 (GSH depletion)) turned out to be 7.6 µM. Further, the GSSG in data set [4] is listed as 0.03 nmol/mg Hb. Besides, in [5], the “EC100 (inhibition of G6PDH activity)” value is 20. Besides, the EC50 stood at 10 µM in data set [5] (read-out: EC50 (inhibition of G6PDH activity)) and 10 µM in data set [6] (erythrocytes treated 24 h, 0.6% Hct, read-out: EC50 (inhibition of GR activity)). Also, the “inhibition of GR activity” value in data set [6] (20 μM, 24 h) is listed as 100%. Besides, the “EC100 (inhibition of GR activity)” value in data set [6] (erythrocytes treated 24 h, 0.6% Hct) is reported as 20. The “GR activity after addition of exogenous FAD” value in data set [6] (samples previously treated with 20 μM for 24 h) is “did not demonstrate significantly increased GR activity in the presence of FAD”. Also, the “inhibitory effect on 6PGDH activity” value against 6PGDH is reported as “did not observe any inhibitory effect”. Besides, the “eryptosis (Annexin V binding), comparison of the three inhibitors” value with human erythrocytes [7] is given as “strongest effect”. In addition, in the data set with Trypanosoma brucei, the “in vitro growth inhibitory effect on parasites' culture” value is recorded as “significant in vitro growth inhibitory effect”. Besides, in the data set on human erythrocytes [8], the “hemolysis (share of total population)” value was “approx. 3%”.
